Key:
[1] = target: T1, Serine/threonine-protein kinase haspin (Homo sapiens) (UniProt Q8TF76); experiment: Selectivity interaction (Adapta Assay) EUB0001632a GSG2; conditions: at 10 µM
T1 sequence (whole entry): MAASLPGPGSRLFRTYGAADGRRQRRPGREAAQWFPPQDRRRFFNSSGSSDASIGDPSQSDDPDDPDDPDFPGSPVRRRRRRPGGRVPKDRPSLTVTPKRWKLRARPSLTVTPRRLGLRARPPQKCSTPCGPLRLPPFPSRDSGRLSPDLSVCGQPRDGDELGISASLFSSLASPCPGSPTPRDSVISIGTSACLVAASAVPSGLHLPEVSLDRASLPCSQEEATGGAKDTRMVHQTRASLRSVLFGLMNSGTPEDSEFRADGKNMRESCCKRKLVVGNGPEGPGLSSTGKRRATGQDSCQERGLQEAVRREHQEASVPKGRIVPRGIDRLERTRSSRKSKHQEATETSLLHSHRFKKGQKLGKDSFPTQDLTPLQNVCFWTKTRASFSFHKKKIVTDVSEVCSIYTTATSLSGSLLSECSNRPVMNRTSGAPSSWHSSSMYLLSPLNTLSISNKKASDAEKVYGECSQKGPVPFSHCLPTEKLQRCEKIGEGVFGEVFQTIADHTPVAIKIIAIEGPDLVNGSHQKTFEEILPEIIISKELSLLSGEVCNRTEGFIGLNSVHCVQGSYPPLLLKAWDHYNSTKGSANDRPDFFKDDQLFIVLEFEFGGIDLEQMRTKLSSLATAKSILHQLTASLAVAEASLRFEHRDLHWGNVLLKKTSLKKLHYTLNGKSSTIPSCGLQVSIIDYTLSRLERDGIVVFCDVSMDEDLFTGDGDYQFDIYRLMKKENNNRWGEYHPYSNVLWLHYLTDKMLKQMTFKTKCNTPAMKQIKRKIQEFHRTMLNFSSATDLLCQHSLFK

[2] = target: T2, SNF-related serine/threonine-protein kinase (Homo sapiens) (UniProt Q9NRH2); experiment: Selectivity interaction (KinomeScan (DiscoverX)) EUB0000607a SNRK; conditions: at 10 µM
T2 sequence (whole entry): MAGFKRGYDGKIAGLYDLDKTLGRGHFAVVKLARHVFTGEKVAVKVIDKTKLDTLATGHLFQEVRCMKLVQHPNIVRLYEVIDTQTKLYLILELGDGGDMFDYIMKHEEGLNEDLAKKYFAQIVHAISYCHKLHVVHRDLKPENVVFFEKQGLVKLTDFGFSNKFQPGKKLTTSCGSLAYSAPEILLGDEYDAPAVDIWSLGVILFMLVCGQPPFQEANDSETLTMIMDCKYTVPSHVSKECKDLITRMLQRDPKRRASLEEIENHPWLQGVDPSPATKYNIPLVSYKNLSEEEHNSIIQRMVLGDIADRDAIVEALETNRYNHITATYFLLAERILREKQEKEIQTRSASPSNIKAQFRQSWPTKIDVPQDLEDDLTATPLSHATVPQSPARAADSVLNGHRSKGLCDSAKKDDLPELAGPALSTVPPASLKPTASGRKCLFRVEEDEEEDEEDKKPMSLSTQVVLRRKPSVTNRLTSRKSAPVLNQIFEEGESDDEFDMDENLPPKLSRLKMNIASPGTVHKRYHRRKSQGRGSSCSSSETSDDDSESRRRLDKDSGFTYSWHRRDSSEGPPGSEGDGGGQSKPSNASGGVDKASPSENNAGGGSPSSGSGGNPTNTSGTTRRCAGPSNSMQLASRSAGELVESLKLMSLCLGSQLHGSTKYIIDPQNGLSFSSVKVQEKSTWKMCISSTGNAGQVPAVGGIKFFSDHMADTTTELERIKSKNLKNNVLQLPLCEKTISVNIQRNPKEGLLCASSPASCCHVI

[3] = target: Mitogen-activated protein kinase kinase kinase 1 (Homo sapiens, UniProt Q13233); experiment: Selectivity interaction (KinomeScan (DiscoverX)) EUB0000607a MAP3K1; conditions: at 10 µM
Chain of Mitogen-activated protein kinase kinase kinase 1 (Q13233 whole entry): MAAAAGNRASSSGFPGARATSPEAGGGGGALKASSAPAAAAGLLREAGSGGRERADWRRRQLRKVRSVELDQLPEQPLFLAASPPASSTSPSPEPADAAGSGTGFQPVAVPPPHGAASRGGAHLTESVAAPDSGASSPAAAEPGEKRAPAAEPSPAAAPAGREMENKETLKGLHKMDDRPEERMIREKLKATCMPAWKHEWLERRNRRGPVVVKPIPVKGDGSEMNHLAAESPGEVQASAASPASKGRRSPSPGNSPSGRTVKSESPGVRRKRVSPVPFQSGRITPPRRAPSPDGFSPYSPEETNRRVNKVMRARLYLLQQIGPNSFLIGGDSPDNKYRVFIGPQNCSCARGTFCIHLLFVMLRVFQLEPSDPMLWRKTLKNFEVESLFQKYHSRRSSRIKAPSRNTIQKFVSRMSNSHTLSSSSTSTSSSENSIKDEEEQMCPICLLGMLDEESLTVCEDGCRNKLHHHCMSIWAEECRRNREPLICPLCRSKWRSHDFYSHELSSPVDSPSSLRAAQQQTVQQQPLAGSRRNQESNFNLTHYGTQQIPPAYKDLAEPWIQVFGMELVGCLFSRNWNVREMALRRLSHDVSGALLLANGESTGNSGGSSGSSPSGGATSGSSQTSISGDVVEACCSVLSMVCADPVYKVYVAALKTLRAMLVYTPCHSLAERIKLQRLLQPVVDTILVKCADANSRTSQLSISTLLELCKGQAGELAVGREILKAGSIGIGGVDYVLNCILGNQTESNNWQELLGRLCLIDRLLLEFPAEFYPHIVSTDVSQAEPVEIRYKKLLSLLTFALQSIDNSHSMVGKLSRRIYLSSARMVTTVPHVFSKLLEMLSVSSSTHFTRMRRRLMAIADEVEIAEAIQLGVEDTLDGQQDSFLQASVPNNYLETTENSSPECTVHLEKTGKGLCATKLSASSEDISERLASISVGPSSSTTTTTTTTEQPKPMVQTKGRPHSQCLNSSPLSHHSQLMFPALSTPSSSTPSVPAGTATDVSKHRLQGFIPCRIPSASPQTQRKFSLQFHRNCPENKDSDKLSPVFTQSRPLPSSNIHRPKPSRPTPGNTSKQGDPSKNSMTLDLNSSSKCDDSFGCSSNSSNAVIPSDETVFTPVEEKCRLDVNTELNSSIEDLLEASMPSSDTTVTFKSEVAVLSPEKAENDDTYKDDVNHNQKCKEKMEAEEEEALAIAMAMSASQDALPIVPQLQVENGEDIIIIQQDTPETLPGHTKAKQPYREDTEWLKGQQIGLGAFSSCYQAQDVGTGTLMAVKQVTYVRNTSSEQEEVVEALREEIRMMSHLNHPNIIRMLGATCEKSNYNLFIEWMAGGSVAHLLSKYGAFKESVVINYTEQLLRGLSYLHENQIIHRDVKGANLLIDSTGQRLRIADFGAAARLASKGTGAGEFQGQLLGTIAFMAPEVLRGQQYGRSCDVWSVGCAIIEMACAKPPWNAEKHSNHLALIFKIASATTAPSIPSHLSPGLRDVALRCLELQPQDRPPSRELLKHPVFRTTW

Insulin receptor = Insulin receptor (Homo sapiens, UniProt P06213); experiment: Selectivity interaction (Kinase screening (Nanosyn)) EUB0000604a INSR
Chain of Insulin receptor (P06213 28-758 limits assumed): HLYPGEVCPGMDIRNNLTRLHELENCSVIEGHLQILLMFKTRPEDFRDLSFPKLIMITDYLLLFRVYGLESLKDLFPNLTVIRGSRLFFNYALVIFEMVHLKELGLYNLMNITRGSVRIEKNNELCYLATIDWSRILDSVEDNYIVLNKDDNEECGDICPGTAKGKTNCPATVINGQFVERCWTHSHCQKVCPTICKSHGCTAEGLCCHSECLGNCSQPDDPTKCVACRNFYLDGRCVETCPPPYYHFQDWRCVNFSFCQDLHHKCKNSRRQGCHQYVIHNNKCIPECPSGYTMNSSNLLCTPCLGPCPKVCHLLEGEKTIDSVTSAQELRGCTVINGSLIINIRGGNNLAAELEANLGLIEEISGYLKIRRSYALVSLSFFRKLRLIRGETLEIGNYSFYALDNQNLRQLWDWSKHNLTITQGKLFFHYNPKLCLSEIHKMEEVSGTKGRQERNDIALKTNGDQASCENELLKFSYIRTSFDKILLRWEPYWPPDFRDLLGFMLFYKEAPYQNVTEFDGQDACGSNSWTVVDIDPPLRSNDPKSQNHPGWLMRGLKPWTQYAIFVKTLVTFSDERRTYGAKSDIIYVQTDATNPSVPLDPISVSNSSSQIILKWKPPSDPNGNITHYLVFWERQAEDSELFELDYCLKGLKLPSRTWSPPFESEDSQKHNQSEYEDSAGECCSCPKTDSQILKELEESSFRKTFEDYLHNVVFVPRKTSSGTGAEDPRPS
Chain of Insulin receptor (P06213 763-1382 limits assumed): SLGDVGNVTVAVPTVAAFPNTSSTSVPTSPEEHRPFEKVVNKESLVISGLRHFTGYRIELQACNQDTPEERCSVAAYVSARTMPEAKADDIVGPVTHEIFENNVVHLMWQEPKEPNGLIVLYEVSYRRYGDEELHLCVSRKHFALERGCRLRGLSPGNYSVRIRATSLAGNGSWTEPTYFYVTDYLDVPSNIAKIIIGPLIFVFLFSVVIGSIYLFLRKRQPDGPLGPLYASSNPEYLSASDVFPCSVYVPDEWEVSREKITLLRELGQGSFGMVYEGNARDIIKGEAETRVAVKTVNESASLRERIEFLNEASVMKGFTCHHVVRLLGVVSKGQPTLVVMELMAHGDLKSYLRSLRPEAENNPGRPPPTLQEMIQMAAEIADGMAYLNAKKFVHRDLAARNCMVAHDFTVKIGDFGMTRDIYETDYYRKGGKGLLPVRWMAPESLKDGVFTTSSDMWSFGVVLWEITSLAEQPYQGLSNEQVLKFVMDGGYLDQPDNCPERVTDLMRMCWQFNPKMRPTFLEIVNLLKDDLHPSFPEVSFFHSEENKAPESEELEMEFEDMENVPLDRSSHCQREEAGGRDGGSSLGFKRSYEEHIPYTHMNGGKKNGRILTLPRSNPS

[4] = target: Interferon-induced, double-stranded RNA-activated protein kinase (Homo sapiens) (UniProt P19525); experiment: Selectivity interaction (Ambit KINOMEscan and KiNATiv profiling in Jurkat cells) EUB0000090b EIF2AK2; type: cell-based; conditions: at 1 µM
Chain of Interferon-induced, double-stranded RNA-activated protein kinase (Homo sapiens) (P19525 whole entry): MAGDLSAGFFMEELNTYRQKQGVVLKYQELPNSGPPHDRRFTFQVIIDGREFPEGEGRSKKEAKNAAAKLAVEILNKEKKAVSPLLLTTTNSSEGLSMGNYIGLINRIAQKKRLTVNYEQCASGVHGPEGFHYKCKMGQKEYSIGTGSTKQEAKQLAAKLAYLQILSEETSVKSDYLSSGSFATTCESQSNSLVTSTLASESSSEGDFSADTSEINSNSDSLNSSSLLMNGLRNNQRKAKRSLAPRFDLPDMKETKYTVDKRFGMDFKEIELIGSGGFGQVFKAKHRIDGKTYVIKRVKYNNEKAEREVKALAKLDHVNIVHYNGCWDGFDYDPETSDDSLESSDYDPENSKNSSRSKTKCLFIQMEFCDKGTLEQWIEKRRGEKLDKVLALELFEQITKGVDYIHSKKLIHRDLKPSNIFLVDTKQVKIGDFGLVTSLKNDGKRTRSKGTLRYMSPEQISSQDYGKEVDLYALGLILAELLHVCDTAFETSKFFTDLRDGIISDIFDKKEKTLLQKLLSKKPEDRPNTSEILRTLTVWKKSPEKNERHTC

[5] = target: Serine/threonine-protein kinase pim-2 (Homo sapiens, UniProt Q9P1W9); experiment: Selectivity interaction (KinomeScan (DiscoverX)) EUB0000229b PIM2; conditions: at 10 µM
Chain of Serine/threonine-protein kinase pim-2 (Q9P1W9 whole entry, looked up, canonical isoform): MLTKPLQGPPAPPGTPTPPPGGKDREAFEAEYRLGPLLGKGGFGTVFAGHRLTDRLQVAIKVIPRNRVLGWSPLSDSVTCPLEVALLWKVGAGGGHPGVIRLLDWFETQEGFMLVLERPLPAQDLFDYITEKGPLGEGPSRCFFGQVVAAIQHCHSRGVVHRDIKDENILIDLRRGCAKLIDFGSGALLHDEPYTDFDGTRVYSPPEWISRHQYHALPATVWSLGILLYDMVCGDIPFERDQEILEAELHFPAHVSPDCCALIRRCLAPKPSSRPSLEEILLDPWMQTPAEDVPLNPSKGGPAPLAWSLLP

[6] = target: T3, Phosphatidylinositol 4,5-bisphosphate 3-kinase catalytic subunit delta isoform (Homo sapiens) (UniProt O00329); experiment: Selectivity interaction (KinomeScan (DiscoverX)) EUB0000092b PIK3CD; conditions: at 10 µM
T3 sequence (whole entry): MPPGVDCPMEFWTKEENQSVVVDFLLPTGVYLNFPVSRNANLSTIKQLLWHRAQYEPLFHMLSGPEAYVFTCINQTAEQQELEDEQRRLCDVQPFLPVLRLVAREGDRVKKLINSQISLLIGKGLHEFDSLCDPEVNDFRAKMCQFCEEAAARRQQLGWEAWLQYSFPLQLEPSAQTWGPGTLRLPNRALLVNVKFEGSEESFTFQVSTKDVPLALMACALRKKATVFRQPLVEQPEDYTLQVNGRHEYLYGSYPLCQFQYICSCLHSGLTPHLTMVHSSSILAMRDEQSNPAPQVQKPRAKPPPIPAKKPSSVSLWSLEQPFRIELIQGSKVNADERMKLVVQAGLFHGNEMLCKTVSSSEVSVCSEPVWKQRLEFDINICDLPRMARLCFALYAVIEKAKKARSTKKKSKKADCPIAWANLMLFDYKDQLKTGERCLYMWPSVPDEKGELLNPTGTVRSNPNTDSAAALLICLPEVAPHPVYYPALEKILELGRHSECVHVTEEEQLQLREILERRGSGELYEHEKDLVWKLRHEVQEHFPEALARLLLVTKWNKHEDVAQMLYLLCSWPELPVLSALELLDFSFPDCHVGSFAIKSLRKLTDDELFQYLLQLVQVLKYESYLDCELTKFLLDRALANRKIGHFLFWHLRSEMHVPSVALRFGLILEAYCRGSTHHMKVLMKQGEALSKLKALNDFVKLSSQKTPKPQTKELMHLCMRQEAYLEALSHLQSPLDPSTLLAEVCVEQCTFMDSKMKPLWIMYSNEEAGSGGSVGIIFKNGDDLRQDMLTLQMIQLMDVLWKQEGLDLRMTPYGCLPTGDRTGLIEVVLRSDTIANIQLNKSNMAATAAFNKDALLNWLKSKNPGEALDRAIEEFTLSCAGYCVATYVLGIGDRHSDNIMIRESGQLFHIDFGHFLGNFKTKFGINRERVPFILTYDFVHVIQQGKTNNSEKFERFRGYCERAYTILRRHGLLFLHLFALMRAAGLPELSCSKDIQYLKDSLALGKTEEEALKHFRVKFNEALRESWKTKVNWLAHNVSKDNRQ

[7] = target: Calcium/calmodulin-dependent protein kinase type II subunit gamma (Homo sapiens) (UniProt Q13555); conditions: at 10 µM
Chain of Calcium/calmodulin-dependent protein kinase type II subunit gamma (Homo sapiens) (Q13555 whole entry): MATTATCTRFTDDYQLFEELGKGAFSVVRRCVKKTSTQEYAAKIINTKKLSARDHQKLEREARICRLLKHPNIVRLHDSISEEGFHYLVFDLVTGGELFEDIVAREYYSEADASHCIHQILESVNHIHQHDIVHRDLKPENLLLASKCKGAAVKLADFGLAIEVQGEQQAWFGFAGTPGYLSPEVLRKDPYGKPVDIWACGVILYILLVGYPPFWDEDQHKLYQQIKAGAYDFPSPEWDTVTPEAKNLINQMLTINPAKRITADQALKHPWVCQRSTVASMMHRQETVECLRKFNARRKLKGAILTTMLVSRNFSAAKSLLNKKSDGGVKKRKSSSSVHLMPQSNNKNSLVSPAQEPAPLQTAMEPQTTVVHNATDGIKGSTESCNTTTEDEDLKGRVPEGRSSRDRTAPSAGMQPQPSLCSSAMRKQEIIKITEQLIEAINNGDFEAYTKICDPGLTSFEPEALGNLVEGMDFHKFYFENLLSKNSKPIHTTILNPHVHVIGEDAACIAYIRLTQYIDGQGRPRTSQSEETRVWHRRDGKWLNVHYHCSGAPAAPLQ

Q: How did the % of inhibition [1] turn out when `Cn1cc(-n2cnc3c(NCc4nc5cc(Cl)c(Cl)cc5[nH]4)nc(N4CCOCC4)nc32)cn1` was run?
A: 45%

Q: How did the % of control [2] turn out when `CNC(=O)Nc1ccc(-c2nc(N3CC4CCC(C3)O4)c3cnn(C4CCC5(CC4)OCCO5)c3n2)cc1` was run?
A: 100%

Q: And the % of control [3]?
A: 58%

Q: With `Cc1cnc(Nc2ccc(F)cc2Cl)nc1-c1c[nH]c(C(=O)N[C@H](CO)c2cccc(Cl)c2)c1` as the compound, how does the % of inhibition (Insulin receptor) read?
A: 4%

Q: For `CN(C)C/C=C/C(=O)Nc1ccc(C(=O)N2CCCC(Nc3ncc(Cl)c(-c4c[nH]c5ccccc45)n3)C2)cc1` (stereo not drawn), which % of control [4] is on record?
A: 92%

Q: How did the % binding [5] turn out when `COc1cc(N(C)c2ccnc3ccc(C(F)(F)F)cc23)cc(OC)c1OC` was run?
A: 100%

Q: With `CCC(=O)N1CCN(c2ccc(-n3c(=O)ccc4cnc5ccc(-c6cnc7ccccc7c6)cc5c43)cc2C(F)(F)F)CC1` as the compound, how does the % of control [6] read?
A: 51%

Q: With `Cc1cc([C@@H](C)Nc2ccccc2C(=O)O)c2nc(N3CCOCC3)cc(=O)n2c1` [AZD-6482] as the compound, how does the % of control [7] read?
A: 98%
